# Activity calls are given as the source filed them.
# How the values were obtained:
# [1] = molecular target: T1, Heat shock factor protein 1 (Mus musculus, UniProt P38532); experiment: decrease of HSF1-responsive luciferase luminescence – cell-based, NIH3T3, dose retest, confirmation (AID 2382); format: functional;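 note: NIH3T3 fibroblasts with HSF1-driven luciferase reporter stressed by proteasome inhibitor MG132; luminescence from HSF1-driven luciferase expression after 8 hours of MG132 stress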
# T1 sequence (P38532 whole entry): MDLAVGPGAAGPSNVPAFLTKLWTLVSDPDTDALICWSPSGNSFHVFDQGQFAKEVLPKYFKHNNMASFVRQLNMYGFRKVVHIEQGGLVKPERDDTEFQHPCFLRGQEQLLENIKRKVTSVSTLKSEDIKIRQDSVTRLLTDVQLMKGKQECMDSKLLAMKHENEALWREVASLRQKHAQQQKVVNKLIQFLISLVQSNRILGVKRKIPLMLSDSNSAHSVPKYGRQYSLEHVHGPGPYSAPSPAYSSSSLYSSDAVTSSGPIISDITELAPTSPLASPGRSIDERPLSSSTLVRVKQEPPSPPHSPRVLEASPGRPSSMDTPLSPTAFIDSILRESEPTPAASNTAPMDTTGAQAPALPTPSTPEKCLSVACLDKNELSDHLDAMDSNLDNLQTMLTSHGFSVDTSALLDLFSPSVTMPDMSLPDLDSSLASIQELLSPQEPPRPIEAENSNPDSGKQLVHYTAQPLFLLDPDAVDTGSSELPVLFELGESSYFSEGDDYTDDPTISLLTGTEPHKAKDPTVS
# [2] = molecular target: T2, Mannose-6-phosphate isomerase (Homo sapiens, UniProt P34949); experiment: MPI enzyme activity inhibition – biochemical, fluorescence intensity, coupled assay, primary screen (AID 1209)
# T2 sequence (P34949 whole entry): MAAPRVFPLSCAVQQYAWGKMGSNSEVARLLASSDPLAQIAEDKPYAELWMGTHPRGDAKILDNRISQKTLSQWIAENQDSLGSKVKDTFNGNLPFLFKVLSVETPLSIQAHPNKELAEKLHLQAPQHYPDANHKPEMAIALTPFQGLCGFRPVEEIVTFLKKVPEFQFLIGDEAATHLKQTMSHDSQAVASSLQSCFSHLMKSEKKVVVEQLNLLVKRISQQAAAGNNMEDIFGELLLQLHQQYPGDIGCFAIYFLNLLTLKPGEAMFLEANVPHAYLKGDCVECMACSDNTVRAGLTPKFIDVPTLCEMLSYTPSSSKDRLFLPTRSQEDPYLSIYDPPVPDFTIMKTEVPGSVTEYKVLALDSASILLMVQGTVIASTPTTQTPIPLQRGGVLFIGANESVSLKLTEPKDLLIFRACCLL
# [3] = molecular target: Oxytocin receptor (Homo sapiens, UniProt P30559); experiment: Counterscreen for vasopressin 1 receptor (V1R) agonists: Fluorescence-based cell-based high throughput dose response assay for agonists of the Oxytocin Receptor (OXTR). [Related pubchem assays: 2435 (Primary screen (OXTR agonists in singlicate)), 434964 (Confirmation screen (V1R agonists in triplicate)), 434969 (Counterscreen (OXTR agonists in …; format: functional
# Sequence of Oxytocin receptor (P30559 whole entry): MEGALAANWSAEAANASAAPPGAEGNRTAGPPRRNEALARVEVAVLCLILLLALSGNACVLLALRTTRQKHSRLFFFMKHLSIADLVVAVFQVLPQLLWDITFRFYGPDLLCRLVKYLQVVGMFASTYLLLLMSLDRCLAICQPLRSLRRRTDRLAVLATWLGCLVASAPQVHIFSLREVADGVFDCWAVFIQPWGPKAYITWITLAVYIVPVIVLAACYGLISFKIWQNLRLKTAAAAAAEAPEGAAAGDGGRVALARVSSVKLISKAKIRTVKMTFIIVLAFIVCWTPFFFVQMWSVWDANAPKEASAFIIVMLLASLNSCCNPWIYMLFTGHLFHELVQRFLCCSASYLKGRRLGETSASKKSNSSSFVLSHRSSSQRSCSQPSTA
# [4] = molecular target: Troponin, cardiac muscle (Homo sapiens, UniProt P19429+P45379+P63316); experiment: Fluorescence-based biochemical high throughput dose response assay for activators of the calcium sensitivity of cardiac Regulated Thin Filaments (RTF). [Related pubchem assays (depositor defined):AID493008, AID493018, AID504382, AID504383]; format: protein-complex assay
# [5] = molecular target: Vasopressin V1a receptor (Homo sapiens, UniProt P37288); experiment: Fluorescence-based cell-based high throughput dose response screening assay for agonists of the vasopressin 1 receptor (V1R).; format: functional
# Sequence of Vasopressin V1a receptor (P37288 whole entry): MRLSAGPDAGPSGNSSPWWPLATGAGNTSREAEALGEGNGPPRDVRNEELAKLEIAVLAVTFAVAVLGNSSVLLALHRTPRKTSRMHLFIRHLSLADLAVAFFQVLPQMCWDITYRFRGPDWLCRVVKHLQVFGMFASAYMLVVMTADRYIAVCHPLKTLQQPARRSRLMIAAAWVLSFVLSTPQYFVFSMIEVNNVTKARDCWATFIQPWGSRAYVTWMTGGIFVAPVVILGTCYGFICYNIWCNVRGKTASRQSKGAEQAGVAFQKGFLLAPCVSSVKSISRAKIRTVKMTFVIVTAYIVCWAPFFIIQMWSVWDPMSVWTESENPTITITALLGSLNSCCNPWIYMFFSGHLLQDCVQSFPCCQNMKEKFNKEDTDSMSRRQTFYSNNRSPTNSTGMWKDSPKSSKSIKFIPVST
# [6] = molecular target: Epstein-Barr nuclear antigen 1 (Epstein-Barr virus (strain B95-8) (HHV-4) (Human herpesvirus 4), UniProt P03211); experiment: inhibition of EBV nuclear antigen 1 DNA binding – biochemical, fluorescence polarization, 1536-well, dose response (AID 2381); design: species or system human gammaherpesvirus 4;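 note: fluorescence polarization of a Cy5 DNA probe bound by EBNA-1 protein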
# Sequence of Epstein-Barr nuclear antigen 1 (P03211 whole entry): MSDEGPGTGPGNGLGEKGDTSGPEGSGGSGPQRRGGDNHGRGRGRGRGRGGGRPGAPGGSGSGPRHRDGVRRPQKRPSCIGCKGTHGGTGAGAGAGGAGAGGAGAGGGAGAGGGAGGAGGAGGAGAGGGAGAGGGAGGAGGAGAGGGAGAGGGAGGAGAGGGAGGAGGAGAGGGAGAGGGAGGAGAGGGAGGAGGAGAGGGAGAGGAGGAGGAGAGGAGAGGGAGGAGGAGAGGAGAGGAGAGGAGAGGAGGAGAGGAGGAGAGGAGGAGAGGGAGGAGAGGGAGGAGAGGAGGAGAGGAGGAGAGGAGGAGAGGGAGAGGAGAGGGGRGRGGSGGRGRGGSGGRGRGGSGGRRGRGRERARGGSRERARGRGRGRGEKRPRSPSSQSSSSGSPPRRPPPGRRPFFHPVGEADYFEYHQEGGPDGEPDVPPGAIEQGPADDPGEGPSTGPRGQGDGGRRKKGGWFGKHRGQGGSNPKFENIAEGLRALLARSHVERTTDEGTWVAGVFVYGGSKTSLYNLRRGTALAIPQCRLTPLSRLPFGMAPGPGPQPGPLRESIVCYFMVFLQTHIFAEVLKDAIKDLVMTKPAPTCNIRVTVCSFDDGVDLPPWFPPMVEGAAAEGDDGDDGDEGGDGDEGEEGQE
# [7] = molecular target: Lytic switch protein BZLF1 (Epstein-Barr virus (strain B95-8) (HHV-4) (Human herpesvirus 4), UniProt P03206); experiment: inhibition of BZLF1 ZTA DNA binding – biochemical, fluorescence polarization, Epstein-Barr virus, 1536-well, counter-screen for EBNA-1 inhibitor project, dose response (AID 2377); design: species or system human gammaherpesvirus 4;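 note: fluorescence polarization of Cy5-labelled ZRE DNA probe bound by purified Zta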
# Sequence of Lytic switch protein BZLF1 (P03206 whole entry): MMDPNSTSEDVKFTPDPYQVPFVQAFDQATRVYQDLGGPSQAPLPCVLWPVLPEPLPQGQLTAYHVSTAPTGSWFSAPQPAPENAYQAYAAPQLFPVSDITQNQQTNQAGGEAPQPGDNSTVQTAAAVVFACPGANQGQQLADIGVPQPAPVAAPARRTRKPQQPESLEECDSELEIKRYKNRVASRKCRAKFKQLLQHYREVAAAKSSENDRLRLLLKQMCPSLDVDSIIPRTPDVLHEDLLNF
# [8] = molecular target: Protein-tyrosine kinase 2-beta (Homo sapiens, UniProt Q14289);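 note: potency of inhibitors of PYK2 kinase phosphorylation of poly-GT substrate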
# Sequence of Protein-tyrosine kinase 2-beta (Q14289 whole entry, the tested form may be a part): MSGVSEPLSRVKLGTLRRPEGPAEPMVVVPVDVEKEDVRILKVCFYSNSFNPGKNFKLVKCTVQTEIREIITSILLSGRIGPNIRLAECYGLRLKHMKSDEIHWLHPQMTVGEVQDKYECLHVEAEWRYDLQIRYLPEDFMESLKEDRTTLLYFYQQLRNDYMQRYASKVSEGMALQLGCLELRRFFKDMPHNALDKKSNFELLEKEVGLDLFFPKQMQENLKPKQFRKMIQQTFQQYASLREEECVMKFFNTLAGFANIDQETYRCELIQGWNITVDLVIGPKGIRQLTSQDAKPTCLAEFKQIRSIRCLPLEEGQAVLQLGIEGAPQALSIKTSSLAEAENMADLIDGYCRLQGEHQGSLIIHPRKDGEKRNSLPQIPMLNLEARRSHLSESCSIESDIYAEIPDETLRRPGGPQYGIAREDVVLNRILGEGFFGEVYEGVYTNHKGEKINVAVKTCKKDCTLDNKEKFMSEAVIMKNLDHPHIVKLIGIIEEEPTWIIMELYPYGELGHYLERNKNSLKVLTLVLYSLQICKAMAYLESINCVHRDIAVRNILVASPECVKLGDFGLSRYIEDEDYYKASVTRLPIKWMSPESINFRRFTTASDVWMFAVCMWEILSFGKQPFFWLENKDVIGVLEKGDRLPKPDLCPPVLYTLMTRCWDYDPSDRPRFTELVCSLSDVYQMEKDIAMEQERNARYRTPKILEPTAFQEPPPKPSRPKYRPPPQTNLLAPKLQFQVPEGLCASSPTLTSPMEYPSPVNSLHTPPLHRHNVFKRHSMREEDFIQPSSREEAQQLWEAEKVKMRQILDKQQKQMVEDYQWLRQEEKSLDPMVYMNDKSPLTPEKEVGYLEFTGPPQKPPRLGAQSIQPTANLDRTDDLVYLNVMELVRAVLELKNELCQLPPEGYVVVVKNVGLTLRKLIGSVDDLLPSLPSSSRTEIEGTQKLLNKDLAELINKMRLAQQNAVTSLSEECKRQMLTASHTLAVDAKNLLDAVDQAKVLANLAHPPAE
# [9] = molecular target: T3, Estrogen receptor (Homo sapiens, UniProt P03372); experiment: ERα coactivator recruitment enhancers – biochemical, TR-FRET, ERα LBD, dose response (AID 737)
# T3 sequence (P03372 whole entry): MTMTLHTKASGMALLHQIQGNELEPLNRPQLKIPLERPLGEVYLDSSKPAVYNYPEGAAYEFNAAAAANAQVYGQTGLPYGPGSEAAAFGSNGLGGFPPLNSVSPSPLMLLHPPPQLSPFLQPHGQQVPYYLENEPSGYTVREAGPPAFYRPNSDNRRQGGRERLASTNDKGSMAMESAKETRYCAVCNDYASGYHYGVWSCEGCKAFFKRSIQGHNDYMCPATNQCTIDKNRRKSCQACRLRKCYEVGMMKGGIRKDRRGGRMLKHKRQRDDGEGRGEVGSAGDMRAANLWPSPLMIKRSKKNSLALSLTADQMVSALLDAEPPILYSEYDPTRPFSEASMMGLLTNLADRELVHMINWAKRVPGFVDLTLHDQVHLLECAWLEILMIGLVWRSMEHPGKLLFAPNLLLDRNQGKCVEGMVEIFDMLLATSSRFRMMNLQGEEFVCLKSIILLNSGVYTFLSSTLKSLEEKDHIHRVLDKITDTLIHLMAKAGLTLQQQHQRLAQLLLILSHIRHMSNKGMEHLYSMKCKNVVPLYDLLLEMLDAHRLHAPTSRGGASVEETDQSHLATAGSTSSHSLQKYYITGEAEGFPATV
# [10] = HPDE-C7 pancreatic duct cell viability loss – fluorescence, HTS (AID 430); format: functional, cell-based; conditions: Homo sapiens
# [11] = viability of PTEN-deleted HCT116 cells – cell-based, HCT116 PTEN knockout, dose response (AID 1047); format: functional;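 note: HCT116 colon tumor cells with PTEN knocked out; cells exposed to compound for 60 hours before readout; potency for loss of cell viability measured by luminescence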
# [12] = viability of HCT116 lacking mutant beta-catenin – cell-based, human colon tumor, dose response (AID 1045); format: functional;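 note: HCT116 colon tumor cells with beta catenin knocked out; cells exposed to compound for 60 hours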
# [13] = Vero E6 cell cytotoxicity, dose response, cytotoxicity control for non-replicating M. tuberculosis project, secondary assay (AID 492998); format: functional, VeroE6; conditions: Vero C1008
# [14] = THP-1 cell cytotoxicity, dose response, cytotoxicity control for non-replicating M. tuberculosis project (AID 489025); format: functional
# [15] = viability loss of HPDE-C7K cells – cell-based, fluorescence, HTS, primary screen (AID 431); format: functional; conditions: Homo sapiens
# [16] = molecular target: Sphingosine 1-phosphate receptor 1 (Homo sapiens, UniProt P21453); format: functional;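 note: Tango beta-arrestin reporter U2OS cells stimulated with S1P near its EC80; inhibitor potency meaning antagonism of receptor activation by the natural agonist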
# Sequence of Sphingosine 1-phosphate receptor 1 (P21453 whole entry): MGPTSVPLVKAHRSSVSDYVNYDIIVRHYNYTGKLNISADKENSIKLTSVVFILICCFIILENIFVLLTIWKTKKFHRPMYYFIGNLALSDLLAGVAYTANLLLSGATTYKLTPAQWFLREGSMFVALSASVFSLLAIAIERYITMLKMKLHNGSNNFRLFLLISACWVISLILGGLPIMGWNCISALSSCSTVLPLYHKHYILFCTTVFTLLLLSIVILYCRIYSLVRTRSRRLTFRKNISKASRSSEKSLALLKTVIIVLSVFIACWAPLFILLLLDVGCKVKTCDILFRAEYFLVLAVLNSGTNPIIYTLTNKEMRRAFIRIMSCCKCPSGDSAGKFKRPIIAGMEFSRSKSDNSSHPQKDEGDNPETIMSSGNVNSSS
# [17] = cells; format: functional
# [18] = molecular target: T4, Sphingosine 1-phosphate receptor 4 (Homo sapiens, UniProt O95977); experiment: Fluorescence dose response cell-based high throughput screening assay for antagonists of the Sphingosine 1-Phosphate Receptor 4 (S1P4). [Related pubchem assays: 1524 (Confirmation in triplicates.), 1510 (Primary screen.)]; format: functional
# T4 sequence (O95977 whole entry): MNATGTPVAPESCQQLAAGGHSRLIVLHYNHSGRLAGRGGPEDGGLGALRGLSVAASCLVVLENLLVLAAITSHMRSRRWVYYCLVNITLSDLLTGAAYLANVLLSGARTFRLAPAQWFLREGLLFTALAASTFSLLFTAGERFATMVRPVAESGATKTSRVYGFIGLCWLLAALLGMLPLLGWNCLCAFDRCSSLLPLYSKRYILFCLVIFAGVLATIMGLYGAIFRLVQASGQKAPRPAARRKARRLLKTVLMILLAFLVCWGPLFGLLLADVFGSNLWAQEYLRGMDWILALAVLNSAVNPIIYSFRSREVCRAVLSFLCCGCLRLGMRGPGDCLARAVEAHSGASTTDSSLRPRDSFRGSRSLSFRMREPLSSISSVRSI
# [19] = fluconazole-exposed Candida albicans growth modulators – fluorescence, retest, confirmation (AID 2467); format: functional, cell-based
# [20] = molecular target: T4, Sphingosine 1-phosphate receptor 4; experiment: Late stage fluorescence dose response cell-based screening assay for antagonists of the Sphingosine 1-Phosphate Receptor 4 (S1P4). [Related pubchem assays: 1524 (Confirmation screen (S1P4 antagonists).), 1510 (Primary screen (S1P4 antagonists).), 1853 (Summary AID (S1P4 antagonists).), 1692 (Dose response screen (S1P4 antagonists).)]; format: functional
# [21] = NIH-3T3 fibroblast cytotoxicity, dose response, cytotoxicity control, cell-based, fluorescence, Alamar Blue, secondary assay (AID 2327); format: functional;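 note: NIH-3T3 mouse fibroblasts cultured with fluconazole at 8 µg/mL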
# [22] = molecular target: T5, Streptokinase A (Streptococcus pyogenes serotype M1, UniProt P10520); experiment: viability-normalized secreted streptokinase activity reduction – plasminogen activation absorbance, OD405, dose response (AID 1914); format: functional, Streptococcus pyogenes M1 GAS;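 note: secreted streptokinase activity via plasminogen activation per viability signal from cell pellet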
# T5 sequence (P10520 whole entry): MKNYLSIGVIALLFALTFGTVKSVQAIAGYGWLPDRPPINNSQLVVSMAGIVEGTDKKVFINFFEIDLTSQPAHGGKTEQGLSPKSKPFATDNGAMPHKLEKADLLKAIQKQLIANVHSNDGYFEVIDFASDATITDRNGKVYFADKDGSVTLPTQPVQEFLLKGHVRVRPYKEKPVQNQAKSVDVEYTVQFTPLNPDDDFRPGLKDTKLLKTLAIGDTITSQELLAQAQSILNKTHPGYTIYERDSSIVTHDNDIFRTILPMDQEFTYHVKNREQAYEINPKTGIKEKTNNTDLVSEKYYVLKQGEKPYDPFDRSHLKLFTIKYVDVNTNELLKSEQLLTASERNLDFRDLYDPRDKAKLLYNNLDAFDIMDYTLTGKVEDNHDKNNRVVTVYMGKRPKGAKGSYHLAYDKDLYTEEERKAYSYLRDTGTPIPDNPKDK
# [23] = system: Streptococcus sp. 'group A'; experiment: Streptococcus pyogenes SK(-)GAS viability under kanamycin – luminescence, BacTiterGlo, confirmation, counter-screen for streptokinase expression inhibitor project, dose response (AID 1900); format: functional, organism-based
# [24] = antiviral protection against BTV-induced cell death – arbovirus, BSR cells, confirmation (AID 1250); format: functional;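 note: protection from viral cytopathic effect measured as cell viability by ATP luminescence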
# [25] = molecular target: T6, fMet-Leu-Phe receptor (Homo sapiens, UniProt P21462); experiment: formyl peptide receptor binders – dose response (AID 519); format: functional
# T6 sequence (P21462 whole entry): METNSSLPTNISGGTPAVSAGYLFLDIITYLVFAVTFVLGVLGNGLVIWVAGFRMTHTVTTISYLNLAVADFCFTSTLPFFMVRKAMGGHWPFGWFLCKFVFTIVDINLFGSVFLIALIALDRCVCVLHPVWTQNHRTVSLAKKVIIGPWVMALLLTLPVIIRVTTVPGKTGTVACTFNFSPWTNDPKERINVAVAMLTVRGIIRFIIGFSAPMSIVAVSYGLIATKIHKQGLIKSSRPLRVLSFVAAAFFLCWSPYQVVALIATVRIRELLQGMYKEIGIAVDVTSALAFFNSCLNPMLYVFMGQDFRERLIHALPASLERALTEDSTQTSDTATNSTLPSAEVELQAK
# [26] = system: Streptococcus; experiment: GAS UMAA2166 growth inhibition – luminescence, BacTiterGlo, counter-screen for streptokinase expression inhibitor project, dose response (AID 1915); format: functional, organism-based;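 note: potency for reduction of bacterial viability or growth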
# [27] = molecular target: DNA dC->dU-editing enzyme APOBEC-3G (Homo sapiens, UniProt Q9HC16); format: functional;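 note: Dose-response counterscreen measuring inhibition of APOBEC3G DNA deaminase activity, run while confirming APOBEC3A inhibitors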
# Sequence of DNA dC->dU-editing enzyme APOBEC-3G (Q9HC16 whole entry): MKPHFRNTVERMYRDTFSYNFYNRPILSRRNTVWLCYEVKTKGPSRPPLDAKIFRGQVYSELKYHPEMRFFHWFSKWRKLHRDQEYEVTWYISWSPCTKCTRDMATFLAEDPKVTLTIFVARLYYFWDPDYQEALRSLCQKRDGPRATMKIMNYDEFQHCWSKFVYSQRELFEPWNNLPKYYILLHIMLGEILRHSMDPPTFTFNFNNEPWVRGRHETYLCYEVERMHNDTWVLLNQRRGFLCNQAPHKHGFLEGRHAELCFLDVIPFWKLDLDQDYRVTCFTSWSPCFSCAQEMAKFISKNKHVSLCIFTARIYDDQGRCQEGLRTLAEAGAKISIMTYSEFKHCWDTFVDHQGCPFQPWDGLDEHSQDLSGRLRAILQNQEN
# [28] = system: HeLa; experiment: Cytotoxicity counterscreen assay for transcriptional activators of heat shock protein 70 (Hsp70). [Related pubchem assays: 1203, 1252 ]; format: functional; conditions: Homo sapiens;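 note: cells exposed to compound for 16 hours before readout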
# [29] = molecular target: DNA dC->dU-editing enzyme APOBEC-3A (Homo sapiens, UniProt P31941); experiment: Dose Response confirmation of small molecule APOBEC3A DNA Deaminase Inhibitors via a fluorescence-based single-stranded DNA deaminase assay. [Related pubchem assays (depositor defined):AID493011, AID493024]; format: functional
# Sequence of DNA dC->dU-editing enzyme APOBEC-3A (P31941 whole entry): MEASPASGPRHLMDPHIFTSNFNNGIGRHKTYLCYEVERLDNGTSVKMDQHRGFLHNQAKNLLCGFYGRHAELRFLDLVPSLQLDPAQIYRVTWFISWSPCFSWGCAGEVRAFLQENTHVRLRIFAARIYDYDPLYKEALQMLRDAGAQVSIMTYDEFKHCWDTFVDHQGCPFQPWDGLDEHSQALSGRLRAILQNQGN
# [30] = molecular target: Bcl-2-like protein 10 (Homo sapiens, UniProt Q9HD36); experiment: Concentration-response of Bcl-B inhibitors by biochemical FP with TR3 (AID 1243); format: functional
# Sequence of Bcl-2-like protein 10 (Q9HD36 whole entry): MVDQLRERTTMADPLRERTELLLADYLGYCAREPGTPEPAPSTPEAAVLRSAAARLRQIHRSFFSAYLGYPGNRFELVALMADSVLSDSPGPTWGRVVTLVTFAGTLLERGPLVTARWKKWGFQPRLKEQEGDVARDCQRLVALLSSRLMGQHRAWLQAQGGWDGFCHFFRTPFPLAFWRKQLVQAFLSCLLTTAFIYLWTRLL
structure (smiles),measurement,setting,value
Cc1nn(-c2ccccc2)c(S)c1/C=N/c1cccc([N+](=O)[O-])c1,EC50,[1],> 195 µM (not active)
same,IC50,[2],19.1 µM (active)
CCSC1=N/C(=C\C=C2/Oc3ccccc3N2CC)C(=O)S1,EC50,[3],> 29.9 µM (not active)
same,EC50,[4],4.53 µM (active)
same,EC50,[5],> 29.9 µM (not active)
CN1CCN(c2ccc(-c3cccc(NC(=O)COc4ccc(Cl)cc4Cl)c3)nn2)CC1,IC50,[6],> 148 µM (not active)
same,IC50,[7],> 111 µM (not active)
O=c1cc(-c2ccco2)oc2c1ccc1ccccc12,IC50,[8],> 69.5 µM (not active)
same,EC50,[9],12.4 µM (active)
CCCS(=O)(=O)c1nnnn1-c1cccc(OC)c1,EC50,[10],6.57 µM (active)
same,EC50,[11],7.57 µM (active)
same,EC50,[12],6.66 µM (active)
same,CC50,[13],11.7 µM (active)
same,CC50,[14],17.8 µM (active)
same,EC50,[15],6.25 µM (active)
same,IC50,[16],20.1 µM (not active)
same,IC50,[17],5.35 µM (active)
same,IC50,[18],0.951 µM (active)
same,EC50,[19],2.49 µM (active)
same,IC50,[20],4.51 µM (not active)
same,EC50,[21],5.1 µM (inconclusive)
CCOC(=O)c1sc(=S)n2c1[nH]c(=O)c1ccc(C(=O)OC)cc12,EC50,[22],> 150 µM (not active)
same,EC50,[23],6.34 µM (active)
same,IC50,[24],53 µM (active)
same,Ki,[25],> 66.7 µM (inactive)
same,EC50,[26],11.5 µM (active)
COc1ccc(N=Nc2[nH]c3ccc(C)cc3c2O)cc1,IC50,[27],7.98 µM (active)
same,CC50,[28],> 33 µM (not active)
same,IC50,[29],8.35 µM (active)
O=C(O)Cc1c[nH]c2ccc(O)cc12,EC50,[30],7.88 µM (active)

# — ChEMBL document CHEMBL1201862, “PubChem BioAssay data set” (2004)
